In ChEMBL document CHEMBL1157495 (Bioorg Med Chem Lett, 2008):

Legend:
Plasmodium berghei [1] = assay: (§1) Antimalarial activity after 10 days against Plasmodium berghei ANKA infected Anopheles stephensi at 10 uM/kg; assay type: functional
Plasmodium berghei [2] = assay: (§2) Antimalarial activity after 10 days against Plasmodium berghei ANKA infected Anopheles stephensi at 50 uM/kg; assay type: functional
Plasmodium berghei [3] = assay: as §1; assay type: functional; remark: listed apart in the source
Plasmodium falciparum = assay: Antiplasmodial activity against chloroquine-resistant Plasmodium falciparum W2; assay type: functional, organism-based
Plasmodium berghei [4] = assay: as §2; assay type: functional; remark: listed apart in the source

COc1cc(NC(C)CCCN2C(=O)CN(C(=O)CN)C2(C)C)c2ncccc2c1 (stereo not drawn)
Activity (Plasmodium berghei [1]): 42%
Activity (Plasmodium berghei [2]): 0.79
Activity (Plasmodium berghei [3]): 1.08

COc1cc(NC(C)CCCN2C(=O)CN(C(=O)[C@@H](N)CCSC)C2(C)C)c2ncccc2c1 (stereo partly drawn)
IC50 (Plasmodium falciparum): 12 µM

COc1cc(NC(C)CCCN2C(=O)CN(C(=O)[C@H](C)N)C2(C)C)c2ncccc2c1 (stereo partly drawn)
Activity (Plasmodium berghei [1]): 67.9%
Activity (Plasmodium berghei [2]): 1.34
Activity (Plasmodium berghei [4]): 40.1%
Activity (Plasmodium berghei [3]): 9.71
IC50 (Plasmodium falciparum): 8 µM

COc1cc(NC(C)CCCN)c2ncccc2c1 (stereo not drawn) [PRIMAQUINE]
Activity (Plasmodium berghei [1]): 41.7%
Activity (Plasmodium berghei [2]): 0.95
Activity (Plasmodium berghei [4]): 42.9%
Activity (Plasmodium berghei [3]): 2

COc1cc(NC(C)CCCN2C(=O)CN(C(=O)[C@@H](N)CC(C)C)C2(C)C)c2ncccc2c1 (stereo partly drawn)
IC50 (Plasmodium falciparum): 6.3 µM

COc1cc(NC(C)CCCN2C(=O)CN(C(=O)[C@@H](N)C(C)C)C2(C)C)c2ncccc2c1 (stereo partly drawn)
IC50 (Plasmodium falciparum): 7.9 µM

COc1cc(NC(C)CCCN2C(=O)[C@H](CCSC)N(C(=O)CN)C2(C)C)c2ncccc2c1 (stereo partly drawn)
IC50 (Plasmodium falciparum): 3.3 µM

COc1cc(NC(C)CCCN2C(=O)[C@H](C)N(C(=O)CN)C2(C)C)c2ncccc2c1 (stereo partly drawn)
IC50 (Plasmodium falciparum): 5.5 µM

COc1cc(NC(C)CCCN2C(=O)[C@H](C)NC2(C)C)c2ncccc2c1 (stereo partly drawn)
IC50 (Plasmodium falciparum): > 50 µM
